Reference: patent US10292960B2, “Anticancer agent comprising aminoacetonitrile compound as active ingredient” (PITNEY PHARMACEUTICALS PTY LIMITED, priority 2013, dated 2019)

Legend:
[1] = system: oophoroma cell line (A2780); assay: Test for cell growth inhibitory activity against A2780 (epithelial ovarian cancer); format: cell-based; conditions: cultured 72 hr, sulforhodamine B
Procedure: An experiment was performed according to the method described in Ahmed SA et al., 1994. Journal of Immunological Methods 170: 211-224, or Boyed M R et al., 1989.
(§1) A cell suspension of oophoroma cell line (A2780) prepared to 2 to 3×10^3/well was added to a well microplate, a given amount of a test substance (0, 1.25, 2.5, 5, 10, 12.5, 20, 25, 50, 100 μM) was added to the culture medium, and the mixture was cultured for 72 hr. Thereafter, 0.4% sulforhodamine B was added to each well, and the absorbance at 570 nm was measured by a microplate reader. The cell growth inhibition ratio was calculated from the above-mentioned formula, and IC50 value was determined from the data. The same test was performed using HOSE cell (normal ovary cell line) as a comparison target instead of A2780 cell, and IC50 value was determined.

[2] = system: HOSE cell (normal ovary cell line); assay: Cell growth inhibitory activity against HOSE cell (comparison target); format: cell-based; conditions: cultured 72 hr, sulforhodamine B
Procedure: as §1

Row | SMILES | IC50 [1] | IC50 [2]
1 | CC(C#N)(COc1ccc(C(F)(F)F)cc1)NC(=O)c1ccc(C(F)(F)C(F)(F)F)cc1 (racemic) [1-10] | 10.3 µM | 49.4 µM
2 | CC(C#N)(COc1ccc(C#Cc2ccccc2)cc1)NC(=O)c1ccc(C(F)(F)F)cc1 (racemic) [1-25] | 4.53 µM | 15.3 µM
3 | CC(C#N)(COc1ccc(C(F)(F)F)cc1)NC(=O)c1cccc(OC(F)(F)F)c1 (racemic) [1-29] | 13.3 µM | –
4 | Cn1nc(C(F)(F)F)cc1C(=O)NC(C)(C#N)COc1ccc(Cl)cc1 (racemic) [1-39] | 6.97 µM | –
5 | CC(C)(C)C(C#N)(COc1ccc(C(F)(F)F)cc1)NC(=O)c1ccc(Cl)cc1Cl (racemic) [1-56] | 11.4 µM | –

The next lines start with results.

Row | IC50 [1] | SMILES | IC50 [2]
6 | 8.81 µM | CC(C)C(C#N)(COc1ccc(Cl)cc1)NC(=O)Cc1cccc(Cl)c1 (stereo not drawn) [2-27] | 15.8 µM
7 | 3.77 µM | CC(C#N)(COc1ccc(C(F)(F)F)cc1)NC(=O)Cc1ccc(C(F)(F)C(F)(F)C(F)(F)F)cc1 (stereo not drawn) [2-109] | –
8 | 3.53 µM | CC(C#N)(COc1ccc(Cl)cc1)NC(=O)Cc1ccc(SC(F)(F)C(F)(F)C(F)(F)F)cc1 (stereo not drawn) [2-114] | 19.9 µM
9 | 6.2 µM | CC(C)(C)C#Cc1ccc(OCC(C)(C#N)NC(=O)Cc2ccc(C(F)(F)F)cc2)cc1 (stereo not drawn) [2-120] | 10.4 µM
10 | 7.22 µM | CCCCCCCCOCC(C)(C#N)NC(=O)Cc1ccc(C(F)(F)F)cc1 (stereo not drawn) [4-1] | –
